Experimental data taken from ChEMBL document CHEMBL1799932, “Antimalarial pyrido[1,2-a]benzimidazoles” (J Med Chem, 2011).
Calls of active or inactive are those of the source. The rule behind the calls is not given here.

Legend:
[1] = tested on: Plasmodium berghei; assay: Antimalarial activity against GFP-transfected Plasmodium berghei strain ANKA infected in NMRI mouse assessed as reduction in parasitemia at 25 mg/kg, po administered as single dose measured on day 5 by FACS analysis; type: functional; parameters: scale not given: the % may be the effect or the level left
[2] = tested on: Plasmodium berghei; assay: Antimalarial activity against GFP-transfected Plasmodium berghei strain ANKA infected in NMRI mouse assessed as reduction in parasitemia at 25 mg/kg, po administered as single dose measured on day 2 by FACS analysis; type: functional; parameters: scale not given: the % may be the effect or the level left
[3] = Metabolic stability in human liver microsomes assessed as intrinsic clearance per mg protein after 60 mins by LC-MS analysis; type: ADME, Microsome
[4] = Metabolic stability in mouse liver microsomes assessed as degradation half life after 60 mins by LC-MS analysis; type: ADME, Microsome
[5] = tested on: Plasmodium berghei; assay: Antimalarial activity against GFP-transfected Plasmodium berghei strain ANKA infected in NMRI mouse assessed as reduction in parasitemia at 25 mg/kg, po administered as single dose measured on day 4 by FACS analysis; type: functional; parameters: scale not given: the % may be the effect or the level left
[6] = tested on: Plasmodium berghei; assay: Antimalarial activity against GFP-transfected Plasmodium berghei strain ANKA infected in NMRI mouse assessed as reduction in parasitemia at 50 mg/kg, po administered as single dose measured on day 3 by FACS analysis; type: functional; parameters: scale not given: the % may be the effect or the level left
[7] = Metabolic stability in rat liver microsomes assessed as intrinsic clearance per mg protein after 60 mins by LC-MS analysis; type: ADME, Microsome
[8] = tested on: Plasmodium berghei; assay: Antimalarial activity against GFP-transfected Plasmodium berghei strain ANKA infected in NMRI mouse assessed as reduction in parasitemia at 50 mg/kg, po administered as single dose measured on day 5 by FACS analysis; type: functional; parameters: scale not given: the % may be the effect or the level left
[9] = tested on: Plasmodium berghei; assay: Antimalarial activity against GFP-transfected Plasmodium berghei strain ANKA infected in NMRI mouse assessed as increase in mean survival time at 50 mg/kg, po administered as single dose (reference value: 5 days )
[10] = tested on: Plasmodium berghei; assay: Antimalarial activity against GFP-transfected Plasmodium berghei strain ANKA infected in NMRI mouse assessed as reduction in parasitemia at 25 mg/kg, po administered as single dose measured on day 3 by FACS analysis; type: functional; parameters: scale not given: the % may be the effect or the level left
[11] = tested on: Plasmodium berghei; assay: Antimalarial activity against GFP-transfected Plasmodium berghei strain ANKA infected in NMRI mouse assessed as reduction in parasitemia at 50 mg/kg, po administered as single dose measured on day 2 by FACS analysis; type: functional; parameters: scale not given: the % may be the effect or the level left
[12] = Metabolic stability in human liver microsomes assessed as degradation half life after 60 mins by LC-MS analysis; type: ADME, Microsome
[13] = tested on: Plasmodium berghei; assay: Antimalarial activity against GFP-transfected Plasmodium berghei strain ANKA infected in NMRI mouse assessed as reduction in parasitemia at 50 mg/kg, po administered as single dose measured on day 4 by FACS analysis; type: functional; parameters: scale not given: the % may be the effect or the level left
[14] = Metabolic stability in rat liver microsomes assessed as degradation half life after 60 mins by LC-MS analysis; type: ADME, Microsome
[15] = tested on: Plasmodium berghei; assay: Antimalarial activity against GFP-transfected Plasmodium berghei strain ANKA infected in NMRI mouse assessed as increase in mean survival time at 25 mg/kg, po administered as single dose (reference value: 5 days )
[16] = Metabolic stability in mouse liver microsomes assessed as intrinsic clearance per mg protein after 60 mins by LC-MS analysis; type: ADME, Microsome
[17] = tested on: Plasmodium berghei; assay: Antimalarial activity against GFP-transfected Plasmodium berghei strain ANKA infected in NMRI mouse assessed as complete cure from parasite infection at 3 to 50 mg/kg, po administered as multiple dose for 4 days measured 24 hrs after last treatment; type: functional, organism-based
[18] = tested on: Plasmodium berghei; assay: Antimalarial activity against GFP-transfected Plasmodium berghei strain ANKA infected in NMRI mouse assessed as reduction in parasitemia at 100 mg/kg/day, po administered for 4 consecutive days measured 24 hrs after last treatment by FACS analysis relative to control; type: functional; parameters: scale not given: the % may be the effect or the level left
[19] = tested on: L6; assay: Cytotoxicity at rat L6 cells after 72 hrs by microplate alamar blue assay; type: cell-based
[20] = tested on: Plasmodium falciparum
Description: (§1) Antimalarial activity against multidrug-resistant Plasmodium falciparum K1 infected in human red blood cells assessed as 3H-hypoxanthine incorporation after 48 hrs by liquid scintillation counting

[21] = tested on: Plasmodium berghei; assay: Antimalarial activity against GFP-transfected Plasmodium berghei strain ANKA infected in NMRI mouse assessed as increase in median survival time at 100 mg/kg/day, po administered for 4 days measured up to 30 days post infection (reference value: 5 to 7 days); type: functional
[22] = tested on: Plasmodium berghei; assay: Antimalarial activity against GFP-transfected Plasmodium berghei strain ANKA infected in NMRI mouse assessed as reduction in parasitemia at 50 mg/kg/day, ip administered for 4 consecutive days measured 24 hrs after last treatment by FACS analysis relative to control; type: functional; parameters: scale not given: the % may be the effect or the level left; conditions: route intraperitoneal
[23] = tested on: Plasmodium berghei; assay: Antimalarial activity against GFP-transfected Plasmodium berghei strain ANKA infected in NMRI mouse assessed as increase in median survival time at 50 mg/kg/day, ip administered for 4 days measured up to 30 days post infection (reference value: 5 to 7 days); type: functional; conditions: route intraperitoneal
[24] = Distribution coefficient, log D of the compound at pH 7.4; type: physicochemical; conditions: octanol/water
[25] = tested on: Plasmodium falciparum; assay: microbe, parasite or virus in culture; conditions: K1
Description: as §1

[26] = Selectivity index, ratio IC50 for rat L6 cells to IC50 for multidrug-resistant Plasmodium falciparum K1 infected in human red blood cells; type: functional
[27] = tested on: Plasmodium falciparum; assay: Ratio IC50 for chloroquine to compound for multidrug-resistant Plasmodium falciparum K1; type: functional
[28] = tested on: Plasmodium falciparum; assay: microbe, parasite or virus in culture; conditions: FCR-3/Gambia
Description: Antimalarial activity against Plasmodium falciparum FCR3

[29] = tested on: Plasmodium falciparum; assay: microbe, parasite or virus in culture; conditions: HB3
Description: Antimalarial activity against Plasmodium falciparum HB3

[30] = tested on: Plasmodium falciparum; assay: microbe, parasite or virus in culture; conditions: Mad20/Papua New Guinea
Description: Antimalarial activity against Plasmodium falciparum Mad20

[31] = tested on: Plasmodium falciparum; assay: microbe, parasite or virus in culture; conditions: K1; remark: listed apart in the source
Description: Antimalarial activity against Plasmodium falciparum K1

[32] = tested on: Plasmodium falciparum; assay: microbe, parasite or virus in culture; conditions: W2, 48 h
[33] = tested on: Plasmodium falciparum; assay: microbe, parasite or virus in culture; conditions: FC27/Papua New Guinea
Description: Antimalarial activity against Plasmodium falciparum FC27

[34] = tested on: Plasmodium falciparum; assay: microbe, parasite or virus in culture; conditions: NF54
Description: Antimalarial activity against Plasmodium falciparum NF54

[35] = tested on: Plasmodium falciparum; assay: Antimalarial activity against Plasmodium falciparum W2; type: functional, organism-based
[36] = tested on: Plasmodium falciparum; assay: Antimalarial activity against Plasmodium falciparum GHA; type: functional, organism-based

Cl.N#Cc1c(-c2ccc(C(F)(F)F)cc2)cc(NCCN2CCCC2)n2c1nc1ccccc12
Activity [1]: 63.72%
Activity [2]: 14.75%
microsomal CLint [3]: 88.4 µL/min/mg
half-life [4]: 67.6 min
Activity [5]: 63.73%
Activity [6]: 47.92%
microsomal CLint [7]: 25.8 µL/min/mg
Activity [8]: 88.53%
MSD [9]: 5 days
Activity [10]: 43.2%
Activity [11]: 14.04%
half-life [12]: 19.6 min
Activity [13]: 73.01%
half-life [14]: 67.2 min
MSD [15]: 7.7 days
microsomal CLint [16]: 25.6 µL/min/mg

CCNCCNc1cc(-c2ccc(C(F)(F)F)cc2)c(C#N)c2nc3ccccc3n12 [listing 1 of 2 here]
Activity [17]: inactive

CCN(CC)CCCNc1cc(-c2ccc(C(F)(F)F)cc2)c(C#N)c2nc3ccccc3n12.Cl
Activity [18]: 93.4%
IC50 ([19]; l6): 2.23 µM
IC50 [20]: 0.16 µM
MSD [21]: 11 days
Activity [22]: 72.6%
MSD [23]: 9 days

Cl.N#Cc1c(-c2ccc(C(F)(F)F)cc2)cc(NCCCN2CCOCC2)n2c1nc1ccccc12
microsomal CLint [3]: 166 µL/min/mg
half-life [4]: 19.9 min
microsomal CLint [7]: 234 µL/min/mg
half-life [12]: 10.4 min
half-life [14]: 7.4 min
microsomal CLint [16]: 87 µL/min/mg

CCN(CC)CCNc1cc(-c2ccc(C(F)(F)F)cc2)c(C#N)c2nc3ccccc3n12.CS(=O)(=O)O
Activity [18]: 97.4%
IC50 ([19]; l6): 124 µM
IC50 [20]: 0.09 µM
MSD [21]: 11 days
Activity [22]: 95.2%
MSD [23]: 11 days

Cl.N#Cc1c(-c2ccc(C(F)(F)F)cc2)cc(NCCN2CCCCC2)n2c1nc1ccccc12
Activity [1]: 46.41%
Activity [2]: 28.44%
microsomal CLint [3]: 45.8 µL/min/mg
half-life [4]: 59.5 min
Activity [5]: 38.72%
microsomal CLint [7]: 27 µL/min/mg
Activity [10]: 28.07%
half-life [12]: 37.9 min
half-life [14]: 64.2 min
MSD [15]: 12.7 days
microsomal CLint [16]: 29.1 µL/min/mg

N#Cc1c(-c2ccccc2)cc(NCCN)n2c1nc1ccccc12
logD [24]: 0.83
IC50 [25]: 4.48 µM
IC50 ([19]; Rattus norvegicus, L6, 72 h): 18.9 µM
Ratio IC50 [26]: 4.2
Ratio IC50 [27]: 22

C[C@@H]1CC[C@H]2[C@@H](C)C(=O)O[C@@H]3O[C@@]4(C)CC[C@@H]1[C@]32OO4 [ARTEMISININ]
IC50 [28]: 0.005 µM
IC50 [29]: 0.003 µM
IC50 [30]: 0.008 µM
IC50 [25]: 0.006 µM

CCc1nc(N)nc(N)c1-c1ccc(Cl)cc1 [PYRIMETHAMINE]
IC50 [28]: 0.012 µM
IC50 [31]: 9.9 µM
IC50 [29]: 1.15 µM
IC50 [30]: < 0.06 µM
IC50 [32]: 29.5 µM
IC50 [33]: < 0.06 µM
IC50 [34]: 0.019 µM

CCN(CC)CCNc1cc(-c2ccc(C(F)(F)F)cc2)c(C#N)c2nc3ccccc3n12
IC50 [28]: 0.137 µM
logD [24]: 2.94
IC50 [31]: 0.047 µM
IC50 [29]: 0.06 µM
IC50 [30]: 0.104 µM
IC50 [25]: 0.047 µM
IC50 ([19]; l6): 28.8 µM
Ratio IC50 [26]: 612
Ratio IC50 [27]: 3.5
IC50 [32]: 0.084 µM
IC50 [33]: 0.175 µM
IC50 [34]: 0.11 µM

CCCc1cc(N2CCN(Cc3ccc(F)cc3)CC2)n2c(nc3ccccc32)c1C#N
IC50 [31]: 0.023 µM
IC50 [34]: 0.053 µM

CN(C)CCNc1cc(-c2ccc(C(F)(F)F)cc2)c(C#N)c2nc3ccccc3n12.CS(=O)(=O)O
Activity [18]: 96.8%
IC50 ([19]; l6): > 175 µM
IC50 [20]: 0.14 µM
MSD [21]: 13.7 days
Activity [22]: 94.1%
MSD [23]: 11 days

OC(c1cc(C(F)(F)F)nc2c(C(F)(F)F)cccc12)C1CCCCN1 (stereo not given) [MEFLOQUINE]
IC50 [30]: 0.013 µM
IC50 [33]: < 0.04 µM
IC50 [34]: 0.013 µM

CCN(CC)CCCNc1cc(-c2cccc(C(F)(F)F)c2)c(C#N)c2nc3ccccc3n12.Cl.Cl
IC50 ([19]; l6): 11.8 µM
IC50 [20]: 0.25 µM
Activity [22]: 0%

Cl.N#Cc1c(-c2ccc(C(F)(F)F)cc2)cc(NCCN2CCOCC2)n2c1nc1ccccc12
microsomal CLint [3]: 109 µL/min/mg
half-life [4]: 26.6 min
microsomal CLint [7]: 108 µL/min/mg
half-life [12]: 15.9 min
half-life [14]: 16 min
microsomal CLint [16]: 65.2 µL/min/mg

Cc1cc(N2CCN(Cc3ccccc3)CC2)n2c(nc3ccccc32)c1C#N
IC50 [31]: 0.05 µM
IC50 [34]: 0.052 µM

CCNCCNc1cc(-c2ccc(C(F)(F)F)cc2)c(C#N)c2nc3ccccc3n12 [listing 2 of 2 here]
IC50 [28]: 0.154 µM
logD [24]: 2.01
IC50 [31]: 0.116 µM
IC50 [29]: 0.09 µM
IC50 [30]: 0.106 µM
IC50 [25]: 0.12 µM
IC50 ([19]; Rattus norvegicus, L6, 72 h): 2.46 µM
Ratio IC50 [26]: 20.5
IC50 [32]: 0.123 µM
IC50 [33]: 0.11 µM
IC50 [34]: 0.11 µM

N#Cc1c(-c2ccccc2)cc(N2CCNCC2)n2c1nc1ccccc12
IC50 [31]: 0.17 µM
IC50 [35]: 0.17 µM
IC50 [36]: 0.17 µM
